From US4011390A, “Semi-synthetic aminocyclitol aminoglycoside antibiotics and methods for the preparation thereof” (Schering-Plough Corporation, priority 1974, dated 1977)
In brackets after ≈: the same amount, converted by molar mass. Read-outs that look alike come from different tables or passages of the source.

Columns and labels:
[1] = tested on: Klebsiella pneumoniae; assay: MIC in Mueller-Hinton Broth pH 7.2; assay type: cell-based
From the text: (§1) In vitro Activity of the Mutamicins and Sisomicin
(§2) MIC's in Mueller-Hinton Broth pH 7.2

[2] = tested on: Pseudomonas aeruginosa; assay: MIC in Mueller-Hinton Broth pH 7.2; assay type: cell-based
From the text: as §1, §2

[3] = tested on: Serratia; assay: MIC in Mueller-Hinton Broth pH 7.2; assay type: cell-based; conditions: strain 127, Mueller-Hinton Broth pH 7.2, read-out: MIC
From the text: as §1, §2

[4] = tested on: Staphylococcus aureus; assay: MIC in Mueller-Hinton Broth pH 7.2; assay type: cell-based
From the text: as §1, §2

[5] = tested on: Proteus rettgeri; assay: MIC in Mueller-Hinton Broth pH 7.2; assay type: cell-based; conditions: Providencia rettgeri; Mueller-Hinton Broth pH 7.2; read-out: MIC
From the text: as §1, §2

[6] = tested on: Salmonella typhimurium; assay: MIC in Mueller-Hinton Broth pH 7.2; assay type: cell-based; conditions: Salmonella enterica, strain B
From the text: as §1, §2

[7] = tested on: Streptococcus pyogenes; assay: MIC in Mueller-Hinton Broth pH 7.2; assay type: cell-based
From the text: as §1, §2

[8] = tested on: Escherichia coli; assay: MIC in Mueller-Hinton Broth pH 7.2; assay type: cell-based
From the text: as §1, §2

[9] = tested on: Aspergillus niger; assay: MIC in Mueller-Hinton Broth pH 7.2; assay type: cell-based; conditions: Mueller-Hinton Broth pH 7.2, read-out: MIC
From the text: as §1, §2

[10] = tested on: Bacillus subtilis; assay: MIC in Mueller-Hinton Broth pH 7.2; assay type: cell-based; conditions: ATCC6633, strain ATCC 6633
From the text: as §1, §2

[11] = tested on: Candida albicans; assay: MIC in Mueller-Hinton Broth pH 7.2; assay type: cell-based; conditions: Mueller-Hinton Broth pH 7.2, read-out: MIC
From the text: as §1, §2

[12] = tested on: Trichophyton rubrum; assay: MIC in Mueller-Hinton Broth pH 7.2; assay type: cell-based; conditions: Mueller-Hinton Broth pH 7.2, read-out: MIC
From the text: as §1, §2

[13] = tested on: Providence; assay: MIC in Mueller-Hinton Broth pH 7.2; assay type: cell-based; conditions: strain (Genta. R.) 164
From the text: as §1, §2

[14] = tested on: Pseudomonas aeruginosa; assay: Protection Tests in Mice; assay type: in vivo
From the text: (§3) In vivo Activity of the Mutamicin 1 and Sisomicin
(§4) Protection Tests in Mice

[15] = tested on: Escherichia coli; assay: Protection Tests in Mice; assay type: in vivo
From the text: as §3, §4

[16] = tested on: Staphylococcus; assay: Protection Tests in Mice; assay type: in vivo; conditions: Staphylococcus Gray, read-out: PD50
From the text: as §3, §4

[17] = Acute Toxicity; conditions: mouse, in vivo
[18] = tested on: Klebsiella pneumoniae; assay: Disc test, Bauer-Kirby technique with 10 Mcg. discs; assay type: cell-based; conditions: Klebsiella pneumoniae
From the text: (§5) Disc Test Results (Replicate Tests) With The Mutamicins, Sisomicin and
(§6) Bauer-Kirby Technique^1 With 10 Mcg. Discs
(§7) ^1 Bauer, Kirby, Sherris and Turck, American Journal of Clinical

[19] = tested on: Pseudomonas aeruginosa; assay: as above; assay type: cell-based; conditions: Pseudomonas aeruginosa
From the text: as §5, §6, §7

[20] = tested on: Staphylococcus aureus; assay: as above; assay type: cell-based; conditions: Staphylococcus aureus
From the text: as §5, §6, §7

[21] = tested on: Streptococcus pyogenes; assay: as above; assay type: cell-based; conditions: Streptococcus pyogenes
From the text: as §5, §6, §7

[22] = tested on: Escherichia coli; assay: as above; assay type: cell-based; conditions: Escherichia coli, read-out: Zone Size
From the text: as §5, §6, §7

[23] = tested on: Bacillus subtilis; assay: as above; assay type: cell-based; conditions: Bacillus subtilis, ATCC6633, strain ATCC 6633
From the text: as §5, §6, §7

[24] = tested on: Providence 164; assay: as above; assay type: cell-based; conditions: strain 164
From the text: as §5, §6, §7

CN[C@@H]1[C@@H](O)[C@@H](O[C@H]2[C@H](N)[C@@H](O)[C@H](N)[C@@H](O[C@H]3OC(CN)=CC[C@H]3N)[C@@H]2O)OC[C@]1(C)O [Mutamicin 1]
MIC ([1]; pH 7.2, strain Ad 18): 0.3 µg/mL (≈ 0.647 µM)
MIC ([1]; pH 7.2, strain Genta. adenyl 121): 3 µg/mL (≈ 6.47 µM)
MIC ([1]; pH 7.2, strain Genta. adenyl 3020): 0.3 µg/mL (≈ 0.647 µM)
MIC ([1]; pH 7.2, strain Genta. adenyl 3694): 0.3 µg/mL (≈ 0.647 µM)
MIC ([1]; pH 7.2, strain Kana. phos. Ad 22): 0.3 µg/mL (≈ 0.647 µM)
MIC ([2]; pH 7.2): > 25 µg/mL
MIC ([2]; pH 7.2, strain 762, Mueller-Hinton Broth pH 7.2, read-out: MIC): 3 µg/mL (≈ 6.47 µM)
MIC ([2]; pH 7.2, strain 1262, Mueller-Hinton Broth pH 7.2, read-out: MIC): 3 µg/mL (≈ 6.47 µM)
MIC ([2]; pH 7.2, strain 1395, Mueller-Hinton Broth pH 7.2, read-out: MIC): 3 µg/mL (≈ 6.47 µM)
MIC ([2]; pH 7.2, strain D-2, Mueller-Hinton Broth pH 7.2, read-out: MIC): 0.8 µg/mL (≈ 1.73 µM)
MIC ([2]; pH 7.2, strain Genta. acetyl Capetown 18, Mueller-Hinton Broth pH 7.2, read-out: MIC): 7.5 µg/mL (≈ 16.2 µM)
MIC ([2]; pH 7.2, strain Genta. acetyl Stone 130, Mueller-Hinton Broth pH 7.2, read-out: MIC): 17.5 µg/mL (≈ 37.8 µM)
MIC ([2]; pH 7.2, strain NRRL B3223, Mueller-Hinton Broth pH 7.2, read-out: MIC): 0.3 µg/mL (≈ 0.647 µM)
MIC ([2]; pH 7.2, strain Stone 20, Mueller-Hinton Broth pH 7.2, read-out: MIC): 3 µg/mL (≈ 6.47 µM)
MIC ([2]; pH 7.2, strain Stone 39, Mueller-Hinton Broth pH 7.2, read-out: MIC): 3 µg/mL (≈ 6.47 µM)
MIC ([2]; pH 7.2, strain Stone 138, Mueller-Hinton Broth pH 7.2, read-out: MIC): 17.5 µg/mL (≈ 37.8 µM)
MIC [3]: 0.8 µg/mL (≈ 1.73 µM)
MIC ([4]; ATCC6538P, pH 7.2, strain ATCC 6538P): 0.3 µg/mL (≈ 0.647 µM)
MIC ([4]; pH 7.2, strain 59N): 0.3 µg/mL (≈ 0.647 µM)
MIC ([4]; pH 7.2, strain 1118): 3 µg/mL (≈ 6.47 µM)
MIC ([4]; pH 7.2, strain Grey): 3 µg/mL (≈ 6.47 µM)
MIC ([4]; pH 7.2, strain Wood): 0.08 µg/mL (≈ 0.173 µM)
MIC ([4]; pH 7.2, strain Ziegler): 0.08 µg/mL (≈ 0.173 µM)
MIC [5]: 3 µg/mL (≈ 6.47 µM)
MIC [6]: 3 µg/mL (≈ 6.47 µM)
MIC ([7]; pH 7.2, strain 27): 7.5 µg/mL (≈ 16.2 µM)
MIC ([7]; pH 7.2, strain Alvarez): 7.5 µg/mL (≈ 16.2 µM)
MIC ([7]; pH 7.2, strain C): 3 µg/mL (≈ 6.47 µM)
MIC ([7]; pH 7.2, strain Cruz): 3 µg/mL (≈ 6.47 µM)
MIC ([7]; pH 7.2, strain Karipeds): 3 µg/mL (≈ 6.47 µM)
MIC ([7]; pH 7.2, strain Labay): 7.5 µg/mL (≈ 16.2 µM)
MIC ([8]; ATCC10536, pH 7.2, strain ATCC 10536): 0.3 µg/mL (≈ 0.647 µM)
MIC ([8]; pH 7.2, strain Baker 2): 3 µg/mL (≈ 6.47 µM)
MIC ([8]; pH 7.2, strain Fl4-Bk): 3 µg/mL (≈ 6.47 µM)
MIC ([8]; pH 7.2, strain Genta. adenyl LA290-R55): 3 µg/mL (≈ 6.47 µM)
MIC ([8]; pH 7.2, strain Genta. adenyl W677/R55): 0.8 µg/mL (≈ 1.73 µM)
MIC ([8]; pH 7.2, strain Kana. phosphor. 589): 3 µg/mL (≈ 6.47 µM)
MIC ([8]; pH 7.2, strain Kana. phosphor. C-13): 3 µg/mL (≈ 6.47 µM)
MIC ([8]; pH 7.2, strain Tobra. R 4195): 3 µg/mL (≈ 6.47 µM)
MIC [9]: > 10 µg/mL
MIC [10]: 0.03 µg/mL (≈ 0.0647 µM)
MIC [11]: > 25 µg/mL
MIC [12]: > 10 µg/mL
MIC [13]: > 25 µg/mL
ED50 ([14]; Pseudomonas aeruginosa 2552, read-out: PD50): 15.3 mg/kg
ED50 ([14]; Pseudomonas aeruginosa 2557, read-out: PD50): 17.1 mg/kg
ED50 ([14]; sc, Pseudomonas aeruginosa Sc., read-out: PD50): 2.5 mg/kg
ED50 ([15]; Escherichia coli 6922, read-out: PD50): 2.5 mg/kg
ED50 ([15]; Escherichia coli Sc., read-out: PD50): 5 mg/kg
ED50 [16]: 6 mg/kg
LD50 ([17]; ip): > 700 mg/kg
LD50 ([17]; iv): 110 mg/kg
zone of inhibition at 10 µg/disc ([18]; strain Ad 17): 24 mm
zone of inhibition at 10 µg/disc ([18]; strain Ad 18): 26 mm
zone of inhibition at 10 µg/disc ([18]; strain Georgetown 3020): 26 mm
zone of inhibition at 10 µg/disc ([18]; strain Georgetown 3694): 26 mm
zone of inhibition at 10 µg/disc ([19]; strain Capetown 18): 19 mm
zone of inhibition at 10 µg/disc ([19]; strain D-2): 21 mm
zone of inhibition at 10 µg/disc ([19]; strain St. Michael 413): 27 mm
zone of inhibition at 10 µg/disc ([19]; strain St. Michael 762): 24 mm
zone of inhibition at 10 µg/disc ([19]; strain St. Michael 1262): 18 mm
zone of inhibition at 10 µg/disc ([19]; strain St. Michael 1395): 29 mm
zone of inhibition at 10 µg/disc ([19]; strain Stone 20): 31 mm
zone of inhibition at 10 µg/disc ([19]; strain Stone 39): 29 mm
zone of inhibition at 10 µg/disc ([19]; strain Stone 130): 14 mm
zone of inhibition at 10 µg/disc ([19]; strain Stone 138): 15 mm
zone of inhibition at 10 µg/disc ([20]; ATCC6538P, strain ATCC 6538P): 26 mm
zone of inhibition at 10 µg/disc ([20]; strain 59N): 26 mm
zone of inhibition at 10 µg/disc ([20]; strain Wood): 28 mm
zone of inhibition at 10 µg/disc ([20]; strain Ziegler): 25 mm
zone of inhibition at 10 µg/disc ([21]; strain B-Cruz): 17 mm
zone of inhibition at 10 µg/disc ([21]; strain C): 13 mm
zone of inhibition at 10 µg/disc ([22]; ATCC10536, strain ATCC 10536, 10 Mcg. discs): 31 mm
zone of inhibition at 10 µg/disc [22]: 11 mm
zone of inhibition at 10 µg/disc ([22]; strain 589, 10 Mcg. discs): 29 mm
zone of inhibition at 10 µg/disc ([22]; strain JR90, 10 Mcg. discs): 0 mm
zone of inhibition at 10 µg/disc ([22]; strain LA290/R55, 10 Mcg. discs): 29 mm
zone of inhibition at 10 µg/disc ([22]; strain Swidinsky 4195, 10 Mcg. discs): 28 mm
zone of inhibition at 10 µg/disc ([22]; strain W677/R55, 10 Mcg. discs): 30 mm
zone of inhibition at 10 µg/disc [23]: 31 mm
zone of inhibition at 10 µg/disc [24]: 15 mm
